Experimental data taken from PubChem BioAssay (NCI).
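48-hour exposure; five concentrations; linearly interpolated endpoints. At the GI50, growth is halved. TGI denotes the concentration required for complete inhibition of growth.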

What was measured:
Assay in all cases: inhibition of tumour cell growth, NCI panel, 48 h
[1] = test system: A498 renal
[2] = test system: 786-0 renal
[3] = test system: CAKI-1 renal
[4] = test system: SK-MEL-2 melanoma
[5] = test system: PC-3 prostate
[6] = test system: MALME-3M melanoma
[7] = test system: IGROV1 ovarian
[8] = test system: TK-10 renal
[9] = test system: MCF7 breast
[10] = test system: COLO 205 colon
[11] = test system: OVCAR-8 ovarian
[12] = test system: NCI-H522 lung
[13] = test system: K-562 leukemia
[14] = test system: HOP-92 NSCLC
[15] = test system: NCI-H226 lung
[16] = test system: SW-620 colon
[17] = test system: SN12C renal
[18] = test system: HT29 colon
[19] = test system: HCT-116 colon
[20] = test system: NCI-H460 lung
[21] = test system: MDA-MB-231 breast
[22] = test system: UACC-257 melanoma
[23] = test system: KM12 colon
[24] = test system: ACHN renal
[25] = test system: MDA-MB-435
[26] = test system: UO-31 renal
[27] = test system: DU-145 prostate
[28] = test system: A549 NSCLC

Nc1ccccc1NC(=O)c1ccc(NC(=O)C/C=C/c2cccnc2)cc1
GI50 [1]: 586 nM | TGI [1]: 2290 nM | GI50 [2]: 2740 nM | TGI [2]: > 50000 nM | GI50 [3]: 2390 nM | TGI [3]: > 50000 nM | GI50 [4]: 2390 nM | TGI [4]: > 50000 nM | GI50 [5]: 1260 nM | TGI [5]: > 50000 nM | GI50 [6]: 247 nM | TGI [6]: 3560 nM | GI50 [7]: 1140 nM | TGI [7]: > 50000 nM | GI50 [8]: 103 nM | TGI [8]: > 50000 nM | GI50 [9]: 1090 nM | TGI [9]: 8320 nM | GI50 [10]: 813 nM | TGI [10]: 7100 nM | GI50 [11]: 159 nM | TGI [11]: > 50000 nM | GI50 [12]: 513 nM | TGI [12]: > 50000 nM | GI50 [13]: 289 nM | TGI [13]: > 50000 nM | GI50 [14]: 341 nM | TGI [14]: 8330 nM | GI50 [15]: 1430 nM | TGI [15]: > 50000 nM | GI50 [16]: 231 nM | TGI [16]: > 50000 nM | GI50 [17]: 320 nM | TGI [17]: > 50000 nM | GI50 [18]: 1170 nM | TGI [18]: > 50000 nM | GI50 [19]: 176 nM | TGI [19]: 4370 nM | GI50 [20]: 1450 nM | TGI [20]: > 50000 nM | GI50 [21]: 6420 nM | TGI [21]: > 50000 nM | GI50 [22]: 1230 nM | TGI [22]: > 50000 nM | GI50 [23]: 8480 nM | TGI [23]: > 50000 nM | GI50 [24]: 2240 nM | TGI [24]: > 50000 nM | GI50 [25]: 1390 nM | TGI [25]: 8020 nM | GI50 [26]: 1540 nM | TGI [26]: > 50000 nM | GI50 [27]: 905 nM | TGI [27]: 2970 nM | GI50 [28]: 2800 nM | TGI [28]: > 50000 nM
